≈ marks a conversion by molar mass, not a printed value. Read-outs that look alike come from different tables or passages of the source. Where a SMILES comes first, the peptide text is derived from it. Bridges are numbered along the chain shown (N, C = ends). Roman numbers before positions name the chains, in order. Side-chain parts run from the residue outwards. The star is where a group is joined. Myristoyl = CCCCCCCCCCCCCC(=O)*; Lauroyl = CCCCCCCCCCCC(=O)*; Octanoyl = CCCCCCCC(=O)*
Assays:
[1] = Lipopeptide hydrophobicity by RP-HPLC (adjusted retention time); assay type: physicochemical; settings: for Adjusted Retention Time: RP-HPLC, 20–65% acetonitrile over 30 min, indicator of hydrophobicity; for Difference in retention time calculated as tR’C—tR’B: between corresponding surfactants of series C and B
Procedure: The identity of the purified peptides was confirmed with electrospray ionization mass spectrometry (ESI-MS) in positive ion mode. Results of MS analyses and net charge are attached in Supplementary Materials (Table S1). Peptides’ hydrophobicity was evaluated by analytical reversed-phase high-performance liquid chromatography (RP-HPLC). The critical aggregation concentrations (CACs) of the lipopeptides were determined in unbuffered aqueous solution at 298 K by measuring the surface tension as a function of lipopeptide concentration. The measurements were carried out by the Du Noüy ring method on a K100 tensiometer. The surface tension data were plotted against the logarithm of lipopeptide concentration. CAC was found as the intersection of two lines being linear regression of data below and above CAC.
Lipopeptide hydrophobicity was determined as described previously. To do this, a Waters Alliance e2695 system with a Waters 2998 PDA Detector (software-Empower 3, Waters, Milford, MA, USA) was used. All analyses were carried out on a Waters X-Bridge Shield RP-18 column (3.0 × 100 mm, 3.5 μm particle size, 130 Å pore size). The Shield Technology column with embedded polar groups was used to minimize interactions of unreacted silanol groups with basic lipopeptides. The peptides were dissolved in water (0.1% TFA, v/v) up to a concentration of 1 mg/mL. UV detection at 214 nm was used, and samples (10 μL) were eluted with a linear 20–65% acetonitrile gradient in deionized water over 30 min at 25.0 ± 0.1 °C. The mobile phase flow rate was 0.5 mL/min. Both eluents contained 0.1% (v/v) of TFA. Each peptide sample was analyzed in triplicate. The maximum standard deviation and coefficient of variation were 0.044 and 0.85%, respectively.

[2] = tested on: Staphylococcus aureus ATCC 33591
Procedure: The Acinetobacter baumannii ATCC BAA-1605, Enterococcus faecium ATCC 700221, Escherichia coli ML-35 ATCC 43827, Klebsiella aerogenes ATCC 13048, Klebsiella pneumoniae ATCC 700603, Pseudomonas aeruginosa ATCC 9027, Staphylococcus aureus ATCC 25923, Staphylococcus aureus ATCC 33591, Candida albicans ATCC 10231, Candida glabrata ATCC 15126, strains were acquired from the American Type Culture Collection (ATCC). All the strains were stored at −80 °C in Roti-Store cryo vials and before the tests were transferred into fresh Mueller–Hinton broth (MHB, Biocorp, Warsaw, […], Steinheim, Germany) for fungi and incubated for 24 h at 37 °C. Then, the cultures were seeded on the Mueller–Hinton agar (BioMaxima, Lublin, Poland) or Sabouraud dextrose agar (SDA, BioMaxima, Lublin, Poland) plates, respectively, and incubated as just mentioned. These agar cultures were used for further microbiological assays. […]
The MICs were determined by the broth microdilution method according to the Clinical and Laboratory Standard Institute guidelines. […] The experiments were conducted on 96-well microtiter polystyrene plates (Kartell, Noviglio, Italy). The growth was assessed visually after incubation, and the MIC was assumed as the lowest peptide concentration at which a noticeable growth of microorganisms was inhibited. All experiments were conducted in triplicate.

[3] = tested on: Acinetobacter baumannii ATCC BAA 1605; assay type: cell-based
Procedure: (§1) Biofilm is associated with life-threating infections due to its outstanding resistance to antibiotics. In this study, the antibiofilm characteristics of USCLs and gemini surfactants were evaluated.
(§2) The MBECs were determined as described previously using 96-well polystyrene flat-bottom plates. For this purpose, 24 h cultures of microorganisms were diluted to obtain a final density of 5.0 × 10^5 CFU/mL and 2.0 × 10^5 CFU/mL of bacteria and fungi, respectively. Microorganisms were diluted in MHB or RPMI-1640 with 2% D-glucose (bacteria and fungi, respectively). Briefly, 100 µL of cell suspension was added into the test plates. After 24 h of incubation at 37 °C, the wells were rinsed three times with a PBS (pH 7.4) to remove non-adherent cells. Subsequently, 100 μL of the test compounds in a concentration range (1–512 μg/mL) were added to each well. After 24 h of incubation at 37 °C, 20 μL of a cell viability reagent was added (resazurin, 4 g/L; Sigma Aldrich, St. Louis, MO, USA). The MBEC was read after 1 h. The determined values were recorded as the lowest concentration at which the reduction of resazurin (from blue to pink) was lower or equal to 10 ± 0.5% as compared to the positive (100%) and negative (0%) controls. The reduction was monitored by measuring absorbance at 570 nm (reduced) and 600 nm (oxidized) using a microplate spectrophotometer (Multiskan GO Microplate Spectrophotometer, Thermo Fisher Scientific, Vantaa, Finland). All experiments were conducted in triplicate.

[4] = tested on: Candida albicans ATCC 10231; assay type: cell-based
Procedure: as §1, §2

[5] = tested on: Candida glabrata ATCC 15126; assay type: cell-based
Procedure: as §1, §2

[6] = tested on: Enterococcus faecium ATCC 700221; assay type: cell-based
Procedure: as §1, §2

[7] = tested on: Klebsiella aerogenes ATCC 13048; assay type: cell-based
Procedure: as §1, §2

[8] = tested on: Klebsiella pneumoniae ATCC 700603; assay type: cell-based
Procedure: as §1, §2

[9] = tested on: Pseudomonas aeruginosa ATCC 9027; assay type: cell-based
Procedure: as §1, §2

[10] = tested on: Staphylococcus aureus ATCC 25923; assay type: cell-based
Procedure: as §1, §2

[11] = tested on: Staphylococcus aureus ATCC 33591; assay type: cell-based
Procedure: as §1, §2

| SMILES | Adjusted Retention Time [1] [min] | MIC Staphylococcus aureus ATCC 33591 ([2]; ATCC 33591, 24 h) [µg/mL] | MBEC Acinetobacter baumannii ATCC BAA 1605 ([3]; ATCC BAA 1605, 24 h) [µg/mL] | MBEC Candida albicans ATCC 10231 ([4]; ATCC 10231, 24 h) [µg/mL] | MBEC Candida glabrata ATCC 15126 ([5]; ATCC 15126, 24 h) [µg/mL] | MBEC Enterococcus faecium ATCC 700221 ([6]; ATCC 700221, 24 h) [µg/mL] | MBEC Klebsiella aerogenes ATCC 13048 ([7]; ATCC 13048, 24 h) [µg/mL] | MBEC Klebsiella pneumoniae ATCC 700603 ([8]; ATCC 700603, 24 h) [µg/mL] | MBEC Pseudomonas aeruginosa ATCC 9027 ([9]; ATCC 9027, 24 h) [µg/mL] | MBEC Staphylococcus aureus ATCC 25923 ([10]; ATCC 25923, 24 h) [µg/mL] | MBEC Staphylococcus aureus ATCC 33591 ([11]; ATCC 33591, 24 h) [µg/mL] | Difference in retention time calculated as tR’C—tR’B [1] [min] | other results |
| --- | --- | --- | --- | --- | --- | --- | --- | --- | --- | --- | --- | --- | --- |
| CCCCCCCCCCCC(=O)N[C@@H](CCCNC(=N)N)C(=O)N[C@@H](CCCNC(=N)N)C(=O)NCCCC[C@H](NC(=O)[C@H](CCCNC(=N)N)NC(=O)[C@H](CCCNC(=N)N)NC(=O)CCCCCCCCCCC)C(N)=O [Compound B3] (Lauroyl-Arg-Arg-Lys([Arg-Arg-Lauroyl])-NH2) | 19.09 | 2 (≈ 1.76 µM) | 256 | 32 | 64 | 16 | 128 | 128 | 512 | 64 | 16 |  |  |
| CCCCCCCC(=O)N[C@@H](Cc1ccccc1)C(=O)N[C@@H](CCCNC(=N)N)C(=O)N[C@@H](CCCNC(=N)N)C(=O)N[C@@H](CSSC[C@H](NC(=O)[C@H](CCCNC(=N)N)NC(=O)[C@H](CCCNC(=N)N)NC(=O)[C@H](Cc1ccccc1)NC(=O)CCCCCCC)C(N)=O)C(N)=O [Compound C5] (I: Octanoyl-FRRC-NH2 / II: Octanoyl-FRRC-NH2; disulfide I:4-II:4) | 15.42 |  |  |  |  |  |  |  |  |  |  | 0.23 | MIC Staphylococcus aureus ATCC 33591 ([2]; planktonic culture): 2 µg/mL (≈ 1.42 µM); MBEC Acinetobacter baumannii ATCC BAA 1605 ([3]; 24 h biofilm on polystyrene): 512 µg/mL; MBEC Candida albicans ATCC 10231 ([4]; 24 h biofilm on polystyrene): 128 µg/mL; MBEC Candida glabrata ATCC 15126 ([5]; 24 h biofilm on polystyrene): 256 µg/mL; MBEC Enterococcus faecium ATCC 700221 ([6]; 24 h biofilm on polystyrene): 8 µg/mL; MBEC Klebsiella aerogenes ATCC 13048 ([7]; 24 h biofilm on polystyrene): 256 µg/mL; MBEC Klebsiella pneumoniae ATCC 700603 ([8]; 24 h biofilm on polystyrene): 256 µg/mL; MBEC Pseudomonas aeruginosa ATCC 9027 ([9]; 24 h biofilm on polystyrene): 512 µg/mL; MBEC Staphylococcus aureus ATCC 25923 ([10]; 24 h biofilm on polystyrene): 64 µg/mL; MBEC Staphylococcus aureus ATCC 33591 ([11]; 24 h biofilm on polystyrene): 8 µg/mL |
| CCCCCCC(CCCC)C(=O)N[C@@H](CCCNC(=N)N)C(=O)N[C@@H](CCCNC(=N)N)C(=O)N[C@@H](CSSC[C@H](NC(=O)[C@H](CCCNC(=N)N)NC(=O)[C@H](CCCNC(=N)N)NC(=O)C(CCCC)CCCCCC)C(N)=O)C(N)=O (stereo partly shown) [Compound C7] | 14.83 | 2 (≈ 1.63 µM) | 256 | 64 | 128 | 4 | 128 | 256 | 512 | 32 | 8 | 0.15 |  |
| CCCCCCCCCCCCCC(=O)N[C@@H](CCCNC(=N)N)C(=O)N[C@@H](CCCNC(=N)N)C(=O)NCCCC[C@H](NC(=O)[C@H](CCCNC(=N)N)NC(=O)[C@H](CCCNC(=N)N)NC(=O)CCCCCCCCCCCCC)C(N)=O [Compound B4] (Myristoyl-Arg-Arg-Lys([Arg-Arg-Myristoyl])-NH2) | 25.33 | 64 (≈ 53.8 µM) | 512 | 64 | 64 | 64 | 256 | 512 | >512 | 256 | 128 |  |  |

— publication PMC8036666, “Biological and Physico-Chemical Characteristics of Arginine-Rich Peptide Gemini Surfactants with Lysine and Cystine Spacers” (International Journal of Molecular Sciences, 2021)
